In the NIST ThermoML archive (doi:10.1021/je501083d):
Numbers after ± are expanded uncertainties.

Conditions: 101.33 kPa, Liquid, Pycnometric method

Row | mass density (288.2 K) | mass density (293.2 K) | mass density (298.2 K) | mass density (303.2 K) | mass density (308.2 K) | mass density (313.2 K) | Compound
1 | 1375.8 ± 2.8 kg/m3 | 1371.5 ± 2.8 kg/m3 | 1368.4 ± 2.8 kg/m3 | 1363.5 ± 2.8 kg/m3 | 1359.3 ± 2.8 kg/m3 | 1355 ± 2.8 kg/m3 | CCCCn1cc[n+](C)c1.F[P-](F)(F)(F)(F)F [1-butyl-3-methylimidazolium hexafluorophosphate]
2 | 1205.4 ± 2.5 kg/m3 | 1202.1 ± 2.5 kg/m3 | 1199.4 ± 2.5 kg/m3 | 1195.4 ± 2.5 kg/m3 | 1191.7 ± 2.5 kg/m3 | 1188 ± 2.5 kg/m3 | CCCCn1cc[n+](C)c1.F[B-](F)(F)F [1-butyl-3-methylimidazolium tetrafluoroborate]

Row | Compound | mass density (288.2 K) | mass density (293.2 K) | mass density (298.2 K) | mass density (303.2 K) | mass density (308.2 K) | mass density (313.2 K)
3 | CCCC[n+]1ccn(C)c1.O=S(=O)([N-]S(=O)(=O)C(F)(F)F)C(F)(F)F | 1443.6 ± 6.1 kg/m3 | 1439.7 ± 6.1 kg/m3 | 1435.6 ± 6 kg/m3 | 1431.3 ± 6 kg/m3 | 1426.8 ± 6 kg/m3 | 1421.9 ± 6 kg/m3
